From US6759420B1, “Arylalkanoyl derivatives, processes for their preparation, their use and pharmaceutical compositions containing them” (Aventis Pharma Deutschland GmbH, priority 1999, dated 2004)
Counter-ions that a name gives are not always drawn.

Target: factor Xa (Homo sapiens, UniProt P00742)
Test: Factor Xa assay (Test 1a), chromogenic
Format: biochemical
Design: purchased Enzyme Research Laboratories, Inc; South Bend, Ind
Details: in vitro factor Xa assay Test 1a; human factor Xa 0.5 nM, substrate S-2765 140 μM, 25° C.; Ki from IC50 corrected for substrate competition
Description: The ability of a compound of formula (I) to inhibit factor Xa, thrombin, plasmin, elastase, and trypsin may be assessed by determining the concentration of compound of formula (I) that inhibits enzyme activity by 50% (IC50). Purified enzymes are used in chromogenic assays. To determine the inhibition constant, the IC50 value is corrected for competition with substrate using the formula:
Ki=IC50×(1/{1+((substrate concentration)/substrate Km)})
where Km is the Michaelis-Menten constant. Y. -C. Chen and W. H. Prusoff, Biochem. Pharmacol. 22: […] (1973), which is incorporated herein by reference.
TBS-PEG buffer (50 mM Tris-Cl, pH 7.8, 200 mM NaCl, 0.05% (w/v) PEG-8000, 0.02% (w/v) NaN3) is used for this assay. The IC50 is determined by combining in appropriate wells of a Costar half-area microtiter plate 25 μl human factor Xa (Enzyme Research Laboratories, Inc.; South Bend, Ind.) in TBS-PEG; 40 μl 10% (v/v) DMSO in TBS-PEG (uninhibited control) or various concentrations of the compound to be tested diluted in 10% (v/v) DMSO in TBS-PEG; and substrate S-2765 (N-benzyloxycarbonyl-D-Arg-Gly-L-Arg-p-nitroanilide; Kabi Pharmacia, Inc.; Franklin Ohio) in TBS-PEG.
The assays are performed by pre-incubating the compound of formula (I) plus enzyme for 10 min, then the assay is initiated by adding substrate to obtain a final volume of 100 μl. The initial velocity of chromogenic substrate hydrolysis is measured by the change in absorbance at 405 nm using a Bio-tek Instruments kinetic plate reader (Ceres UV900HDi) at 25° C. during the linear portion of the time course (usually 1.5 min after addition of substrate). The concentration of inhibitor that causes a 50% decrease in the rate of substrate hydrolysis is predicted by linear regression after plotting the relative rates of hydrolysis (compared to the uninhibited control) versus the log of the compound of formula (I) concentration. The enzyme concentration is 0.5 nM and substrate concentration is 140 μM.

Chain of factor Xa (P00742 235-488 limits assumed): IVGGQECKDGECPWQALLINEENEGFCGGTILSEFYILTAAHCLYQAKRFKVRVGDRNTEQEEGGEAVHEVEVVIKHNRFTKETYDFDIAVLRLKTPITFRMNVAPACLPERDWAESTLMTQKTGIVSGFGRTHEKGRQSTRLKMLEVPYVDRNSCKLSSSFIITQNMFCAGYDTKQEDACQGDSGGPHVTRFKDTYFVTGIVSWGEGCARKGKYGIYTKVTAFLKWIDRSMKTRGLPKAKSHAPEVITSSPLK
Chain of factor Xa (P00742 41-179 limits assumed): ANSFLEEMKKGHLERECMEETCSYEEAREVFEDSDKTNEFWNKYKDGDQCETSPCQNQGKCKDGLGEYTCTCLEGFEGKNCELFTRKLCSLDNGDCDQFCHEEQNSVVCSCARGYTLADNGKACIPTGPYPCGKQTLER

In order of rising Ki:
1. CN(C)C(=O)[C@H](CCCNC(=N)N)NC(=O)[C@@H](NC(=O)C(Cc1ccc(C(=N)N)cc1)c1cccc(Br)c1)C1CCCCC1 (single isomer, unassigned; less polar) [Example 246]  0.0007 µM
2. N=C(N)NCCC[C@H](NC(=O)[C@@H](NC(=O)C(Cc1ccc(C(=N)N)cc1)c1cccnc1)C1CCCCC1)C(N)=O (stereo partly drawn) [Example 10, 2-(S)-{2-(S)-[3-(4-Carbamimidoyl-phenyl)-2-(R,S)-pyridin-3-yl-propionylamino]-2-cyclohexyl-acetylamino}-5-guanidino-pentanoic acid amide trifluoroactic acid salt]  0.0009 µM
3. CC(=N)N1CCC(CNC(=O)C(NC(=O)C(Cc2ccc(C(=N)N)cc2)c2cccc(Br)c2)C2CCCCC2)CC1 (single isomer, unassigned; less polar) [Example 223]  0.001 µM
4. N=C(N)c1ccc(CC(C(=O)N[C@H](C(=O)NCC2CCN(C(=N)N)CC2)C2CCCCC2)c2ccccc2Cl)cc1 (single isomer, unassigned; less polar) [Example 230]  0.001 µM
5. CC(C)OC(=O)[C@H](CCCNC(=N)N)NC(=O)[C@@H](NC(=O)C(Cc1ccc(C(=N)N)cc1)c1cccc(Br)c1)C1CCCCC1 (single isomer, unassigned; less polar) [Example 242]  0.002 µM
6. N=C(N)c1ccc(CC(C(=O)N[C@H](C(=O)NCC2CCN(C(=N)N)CC2)C2CCCCC2)c2ccccc2Br)cc1 (single isomer, unassigned; less polar) [Example 236]  0.005 µM
7. CC(=N)N1CCC(CNC(=O)[C@@H](NC(=O)C(Cc2ccc(C(=N)N)cc2)c2cccc(C(F)(F)F)c2)C2CCCCC2)CC1 (single isomer, unassigned; less polar) [Example 258]  0.008 µM
8. N=C(N)c1ccc(CC(C(=O)N[C@H](C(=O)NCC2CCN(C(=N)N)CC2)C2CCCCC2)c2ccccc2F)cc1 (single isomer, unassigned; less polar) [Example 235]  0.012 µM
9. N=C(N)c1ccc(CC(C(=O)N[C@H](C(=O)NCC2CCN(C(=N)N)CC2)C2CCCCC2)c2ccc(C(F)(F)F)cc2)cc1 (single isomer, unassigned; less polar) [Example 232]  0.024 µM
10. N=C(N)c1ccc(CC(C(=O)N[C@H](C(=O)NCC2CCN(C(=N)N)CC2)C2CCCCC2)c2cccc3ccccc23)cc1 (single isomer, unassigned; less polar) [Example 241]  0.025 µM
11. Cc1ccccc1C(Cc1ccc(C(=N)N)cc1)C(=O)NC(C(=O)NCC1CCN(C(=N)N)CC1)C1CCCCC1 (single isomer, unassigned; more polar) [Example 162]  0.025 µM
12. CC(C)OC(=O)[C@H](CCCNC(=N)N)NC(=O)[C@@H](NC(=O)C(Cc1ccc(C(=N)N)cc1)c1cccc(Br)c1)C1CCCCC1 (single isomer, unassigned; more polar) [Example 243]  0.025 µM
13. COc1ccc(CNC(=O)C(CCCNC(=N)N)NC(=O)C(NC(=O)C(Cc2ccc(C(=N)N)cc2)C2CCCCC2)C2CCCCC2)cc1 [Example 202, 2-(S)-{2-[3-(4-Carbamimidoyl-phenyl)-2-cyclohexyl-propionylamino]-2-cyclohexyl-acetylamino}-5-guanidino-pentanoic acid 4-methoxy-benzylamide trilfuoroacetic acid salt]  0.028 µM
14. CS(=O)(=O)c1cccc(C(Cc2ccc(C(=N)N)cc2)C(=O)N[C@H](C(=O)NCC2CCN(C(=N)N)CC2)C2CCCCC2)c1 (single isomer, unassigned; less polar) [Example 252]  0.031 µM
15. N=C(N)NCCC[C@H](NC(=O)C(NC(=O)C(Cc1ccc(C(=N)N)cc1)C1CCCCC1)C1CCCCC1)C(=O)NC(c1ccccc1)c1ccccc1 (stereo partly drawn) [Example 195, 2-(S)-2-[3-(4-Carbamimidoyl-phenyl)-2-cyclohexyl-propionylamino]-2-cyclohexyl-acetylamino}-5-guanidino-pentanoic acid benzhydryl-amide trifluoroacetic acid salt]  0.032 µM
16. N=C(N)c1ccc(CC(C(=O)N[C@H](C(=O)NCC2CCN(C(=N)N)CC2)C2CCCCC2)c2ccccc2OC(F)(F)F)cc1 (single isomer, unassigned; less polar) [Example 233]  0.033 µM
17. N=C(N)NCCC[C@H](NC(=O)C(NC(=O)C(Cc1ccc(C(=N)N)cc1)C1CCCCC1)C1CCCCC1)C(=O)NCc1ccncc1 (stereo partly drawn) [Example 194, 2-(S)-{2-[3-(4-Carbamimidoyl-phenyl)-2-cyclohexyl-propionylamino]-2-cyclohexyl-acetylamino}-5-guanidino-pentanoic acid (pyridin-4-ylmethyl)-amide trifluoroacetic acid salt]  0.034 µM
18. N=C(N)NCCC[C@H](NC(=O)C(NC(=O)C(Cc1ccc(C(=N)N)cc1)C1CCCCC1)C1CCCCC1)C(=O)NCc1ccccc1 (stereo partly drawn) [Example 196, 2-(S)-{2-[3-(4-Carbamimidoyl-phenyl)-2-cyclohexyl-propionylamino]-2-cyclohexyl-acetylamino}-5-guanidino-pentanoic acid benzylamide trifluoroacetic acid salt]  0.039 µM
19. N=C(N)NCCC[C@H](NC(=O)C(NC(=O)C(Cc1ccc(C(=N)N)cc1)C1CCCCC1)C1CCCCC1)C(=O)NCc1ccc(Cl)cc1 (stereo partly drawn) [Example 201, 2-(S)-{2-[3-(4-Carbamimidoyl-phenyl)-2-cyclohexyl-propionylamino]-2-cyclohexyl-acetylamino}-5-guanidino-pentanoic acid 4-chloro-benzylamide trifluoroacetic acid salt]  0.042 µM
20. N=C(N)c1ccc(CC(C(=O)N[C@H](C(=O)NCC2CCN(C(=N)N)CC2)C2CCCCC2)c2ccccc2)cc1 (single isomer, unassigned; less polar) [Example 222]  0.043 µM
21. N=C(N)NCCC[C@H](NC(=O)C(NC(=O)C(Cc1ccc(C(=N)N)cc1)C1CCCCC1)C1CCCCC1)C(=O)NCc1cccs1 (stereo partly drawn) [Example 192, 2-(S)-{2-[3-(4-Carbamimidoyl-phenyl)-2-cyclohexyl-propionylamino]-2-cyclohexyl-acetylamino}-5-guanidino-pentanoic acid (thiophen-2-ylmethyl)-amide trifluoroacetic acid salt]  0.044 µM
22. N=C(N)c1ccc(CC(C(=O)N[C@H](C(=O)NCC2CCN(C(=N)N)CC2)C2CCCCC2)c2ccccc2F)cc1 (stereo partly drawn) [Example 214, 3-(4-Carbamimidoyl-phenyl)-N-{(S)-[(1-carbamimidoyl-piperidin-4-ylmethyl)-carbamoyl]-cyclohexyl-methyl}-2-(2-fluoro-phenyl)-propionamide trifluoroacetic acid salt]  0.047 µM
23. N=C(N)NCCCC(NC(=O)C(NC(=O)C(Cc1ccc(C(=N)N)cc1)c1cccc(Cl)c1)C1CCCCC1)C(N)=O (single isomer, unassigned; more polar) [Example 125]  2.57 µM
24. Cc1ccc(C(Cc2ccc(C(=N)N)cc2)C(=O)NC(C(=O)NCc2ccc(C(=N)N)cc2)C2CCCCC2)cc1 (single isomer, unassigned; more polar) [Example 153]  5.84 µM
